In ChEMBL document CHEMBL4000252, “Discovery of N-(2-aminoethyl)-N-benzyloxyphenyl benzamides: New potent Trypanosoma brucei inhibitors” (Bioorg Med Chem, 2017):
Activity calls are given as the source filed them. The calls are words filed in the database; no cut-off is given here.

Experiments:
[1] = tested on: Trypanosoma brucei brucei; experiment: Antiparasitic activity against Trypanosoma brucei brucei TREU667 infected in mouse assessed as decrease in parasitemia at 50 mg/kg, bid administered via oral gavage on day 21 to 34 post infection measured on day 35 by microscopic method; assay type: functional, organism-based
[2] = tested on: Trypanosoma brucei brucei; experiment: Antiparasitic activity against Trypanosoma brucei brucei TREU667 infected in mouse assessed as decrease in parasitemia at 50 mg/kg, bid administered via oral gavage on day 21 to 34 post infection measured on day 43 to 45 by microscopic method; assay type: functional, organism-based
[3] = tested on: Trypanosoma brucei brucei; experiment: Antiparasitic activity against Trypanosoma brucei brucei TREU667 infected in mouse assessed as decrease in parasitemia at 50 mg/kg, bid administered via oral gavage on day 21 to 34 post infection measured on day 41 to 42 by microscopic method; assay type: functional, organism-based
[4] = tested on: Trypanosoma brucei brucei; experiment: Antiparasitic activity against Trypanosoma brucei brucei TREU667 infected in mouse assessed as decrease in parasitemia at 50 mg/kg, bid administered via oral gavage on day 21 to 34 post infection measured on day 36 by microscopic method; assay type: functional, organism-based
[5] = tested on: Trypanosoma brucei brucei; experiment: Antiparasitic activity against Trypanosoma brucei brucei TREU667 infected in mouse assessed as decrease in parasitemia at 50 mg/kg, bid administered via oral gavage on day 21 to 34 post infection measured on day 37 by microscopic method; assay type: functional, organism-based
[6] = tested on: Trypanosoma brucei brucei; experiment: Antiparasitic activity against Trypanosoma brucei brucei TREU667 infected in mouse assessed as decrease in parasitemia at 50 mg/kg, bid administered via oral gavage on day 21 to 34 post infection measured on day 34 by microscopic method; assay type: functional, organism-based
[7] = tested on: Trypanosoma brucei brucei; experiment: Antiparasitic activity against Trypanosoma brucei brucei TREU667 infected in mouse assessed as decrease in parasitemia at 50 mg/kg, bid administered via oral gavage on day 21 to 34 post infection measured on day 39 by microscopic method; assay type: functional, organism-based
[8] = tested on: Trypanosoma brucei brucei; experiment: Antiparasitic activity against Trypanosoma brucei brucei TREU667 infected in mouse assessed as decrease in parasitemia at 50 mg/kg, bid administered via oral gavage on day 21 to 34 post infection measured on day 38 by microscopic method; assay type: functional, organism-based
[9] = tested on: Trypanosoma brucei brucei; experiment: Antiparasitic activity against Trypanosoma brucei brucei TREU667 infected in mouse assessed as decrease in parasitemia at 50 mg/kg, bid administered via oral gavage on day 21 to 34 post infection measured on day 46 to 49 by microscopic method; assay type: functional, organism-based
[10] = tested on: Trypanosoma brucei brucei; experiment: Antiparasitic activity against Trypanosoma brucei brucei TREU667 infected in mouse assessed as decrease in parasitemia at 50 mg/kg, bid administered via oral gavage on day 21 to 34 post infection measured on day 52 to 180 by microscopic method; assay type: functional, organism-based
[11] = tested on: Trypanosoma brucei brucei; experiment: Antiparasitic activity against Trypanosoma brucei brucei TREU667 infected in mouse assessed as decrease in parasitemia at 50 mg/kg, bid administered via oral gavage on day 21 to 34 post infection measured on day 50 to 51 by microscopic method; assay type: functional, organism-based
[12] = tested on: Trypanosoma brucei brucei; experiment: Antiparasitic activity against Trypanosoma brucei brucei TREU667 infected in mouse assessed as decrease in parasitemia at 50 mg/kg, bid administered via oral gavage on day 21 to 34 post infection measured on day 40 by microscopic method; assay type: functional, organism-based
[13] = tested on: Trypanosoma brucei brucei; experiment: Antiparasitic activity against Trypanosoma brucei brucei TREU667 infected in mouse assessed as decrease in parasitemia at 10 mg/kg, ip administered as single dose on day 21 post infection measured on day 43 to 45 by microscopic method; assay type: functional, organism-based
[14] = tested on: Trypanosoma brucei brucei; experiment: Antiparasitic activity against Trypanosoma brucei brucei TREU667 infected in mouse assessed as decrease in parasitemia at 10 mg/kg, ip administered as single dose on day 21 post infection measured on day 50 to 51 by microscopic method; assay type: functional, organism-based
[15] = tested on: Trypanosoma brucei brucei; experiment: Antiparasitic activity against Trypanosoma brucei brucei TREU667 infected in mouse assessed as decrease in parasitemia at 10 mg/kg, ip administered as single dose on day 21 post infection measured on day 40 by microscopic method; assay type: functional, organism-based
[16] = tested on: Trypanosoma brucei brucei; experiment: Antiparasitic activity against Trypanosoma brucei brucei TREU667 infected in mouse assessed as decrease in parasitemia at 10 mg/kg, ip administered as single dose on day 21 post infection measured on day 37 by microscopic method; assay type: functional, organism-based
[17] = tested on: Trypanosoma brucei brucei; experiment: Antiparasitic activity against Trypanosoma brucei brucei TREU667 infected in mouse assessed as decrease in parasitemia at 10 mg/kg, ip administered as single dose on day 21 post infection measured on day 41 to 42 by microscopic method; assay type: functional, organism-based
[18] = tested on: Trypanosoma brucei brucei; experiment: Antiparasitic activity against Trypanosoma brucei brucei TREU667 infected in mouse assessed as decrease in parasitemia at 10 mg/kg, ip administered as single dose on day 21 post infection measured on day 39 by microscopic method; assay type: functional, organism-based
[19] = tested on: Trypanosoma brucei brucei; experiment: Antiparasitic activity against Trypanosoma brucei brucei TREU667 infected in mouse assessed as decrease in parasitemia at 10 mg/kg, ip administered as single dose on day 21 post infection measured on day 34 by microscopic method; assay type: functional, organism-based
[20] = tested on: Trypanosoma brucei brucei; experiment: Antiparasitic activity against Trypanosoma brucei brucei TREU667 infected in mouse assessed as decrease in parasite levels in brain at 10 mg/kg, ip administered as single dose on day 21 post infection by microscopic method; assay type: functional, organism-based
[21] = tested on: Trypanosoma brucei brucei; experiment: Antiparasitic activity against Trypanosoma brucei brucei TREU667 infected in mouse assessed as decrease in parasite levels in peripheries at 10 mg/kg, ip administered as single dose on day 21 post infection by microscopic method; assay type: functional, organism-based
[22] = tested on: Trypanosoma brucei brucei; experiment: Antiparasitic activity against Trypanosoma brucei brucei TREU667 infected in mouse assessed as decrease in parasitemia at 10 mg/kg, ip administered as single dose on day 21 post infection measured on day 38 by microscopic method; assay type: functional, organism-based
[23] = tested on: Trypanosoma brucei brucei; experiment: Antiparasitic activity against Trypanosoma brucei brucei TREU667 infected in mouse assessed as decrease in parasitemia at 10 mg/kg, ip administered as single dose on day 21 post infection measured on day 36 by microscopic method; assay type: functional, organism-based
[24] = tested on: Trypanosoma brucei brucei; experiment: Antiparasitic activity against Trypanosoma brucei brucei TREU667 infected in mouse assessed as decrease in parasitemia at 10 mg/kg, ip administered as single dose on day 21 post infection measured on day 35 by microscopic method; assay type: functional, organism-based
[25] = tested on: Trypanosoma brucei brucei; experiment: Antiparasitic activity against Trypanosoma brucei brucei BF427 assessed as growth inhibition at 64 times EC50 pretreated for 72 hrs followed by compound washout measured after 10 days by light microscopic method; assay type: functional
[26] = tested on: HepG2; experiment: Cytotoxicity against human HepG2 cells assessed as growth inhibition after 48 hrs by Alamar blue assay; assay type: cell-based; settings: hepg2, 48 h
[27] = tested on: Trypanosoma brucei brucei; experiment: Antiparasitic activity against Trypanosoma brucei brucei BF427 assessed as growth inhibition at 128 times EC50 pretreated for 48 hrs followed by compound washout measured after 10 days by light microscopic method; assay type: functional
[28] = tested on: Trypanosoma brucei brucei; experiment: Antiparasitic activity against Trypanosoma brucei brucei BF427 assessed as growth inhibition at 64 times EC50 pretreated for 96 hrs followed by compound washout measured after 10 days by light microscopic method; assay type: functional
[29] = Ratio of drug level in brain to plasma in mouse at 5 mg/kg, ip after 1 hr by LC-MS analysis; assay type: ADME, organism-based
[30] = tested on: Trypanosoma brucei brucei; experiment: Antiparasitic activity against Trypanosoma brucei brucei BF427 assessed as growth inhibition at 128 times EC50 pretreated for 24 hrs followed by compound washout measured after 10 days by light microscopic method; assay type: functional
[31] = Cmax in mouse at 50 mg/kg, po by LC-MS analysis; assay type: ADME, organism-based; design: dose 50 mg/kg, route oral; settings: in vivo
[32] = tested on: Trypanosoma brucei brucei; experiment: Antiparasitic activity against Trypanosoma brucei brucei BF427 assessed as growth inhibition after 48 hrs by Alamar blue assay; assay type: functional; settings: BF427, 48 h
[33] = tested on: Trypanosoma brucei rhodesiense; experiment: Antiparasitic activity against Trypanosoma brucei rhodesiense STIB900 infected in Swiss-Webster mouse assessed as cure rate at 50 mg/kg, bid administered via oral gavage from day 2 to 5 post infection measured after 60 days by microscopic method relative to control; assay type: functional
[34] = tested on: Liver; experiment: Half life in human liver microsomes at 1.5 uM by LC-MS analysis; assay type: ADME, microsome
[35] = AUC (0 to 8 hrs) in mouse at 50 mg/kg, po by LC-MS analysis; assay type: ADME, organism-based; design: dose 50 mg/kg, time < 8 hr, route oral; settings: in vivo
[36] = Cytotoxicity against human CRL8155 cells assessed as growth inhibition after 48 hrs by Alamar blue assay; assay type: cell-based; settings: crl8155, 48 h
[37] = tested on: Trypanosoma brucei brucei; experiment: Antiparasitic activity against Trypanosoma brucei brucei BF427 assessed as growth inhibition at 16 times EC50 pretreated for 96 hrs followed by compound washout measured after 10 days by light microscopic method; assay type: functional
[38] = tested on: Trypanosoma brucei brucei; experiment: Antiparasitic activity against Trypanosoma brucei brucei BF427 assessed as growth inhibition at 16 times EC50 pretreated for 72 hrs followed by compound washout measured after 10 days by light microscopic method; assay type: functional
[39] = target: Cytochrome P450 3A4 (Homo sapiens, UniProt P08684); experiment: Inhibition of human CYP3A4; assay type: ADME
Cytochrome P450 3A4, sequence (P08684 whole entry): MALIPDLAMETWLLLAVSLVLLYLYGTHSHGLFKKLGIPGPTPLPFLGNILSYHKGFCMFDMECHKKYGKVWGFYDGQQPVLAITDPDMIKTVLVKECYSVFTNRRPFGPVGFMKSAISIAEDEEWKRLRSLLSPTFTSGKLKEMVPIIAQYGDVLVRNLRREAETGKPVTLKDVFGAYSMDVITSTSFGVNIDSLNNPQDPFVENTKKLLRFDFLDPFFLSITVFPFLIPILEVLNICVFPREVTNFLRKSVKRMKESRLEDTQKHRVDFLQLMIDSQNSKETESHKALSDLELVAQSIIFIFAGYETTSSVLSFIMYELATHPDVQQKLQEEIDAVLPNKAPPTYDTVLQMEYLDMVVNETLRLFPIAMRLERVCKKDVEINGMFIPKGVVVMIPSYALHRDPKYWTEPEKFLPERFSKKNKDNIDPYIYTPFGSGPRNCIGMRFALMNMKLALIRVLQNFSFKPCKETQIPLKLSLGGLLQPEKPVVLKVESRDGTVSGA

[40] = tested on: Trypanosoma brucei brucei; experiment: Antiparasitic activity against Trypanosoma brucei brucei BF427 assessed as growth inhibition at 32 times EC50 pretreated for 24 hrs followed by compound washout measured after 10 days by light microscopic method; assay type: functional
[41] = tested on: Liver; experiment: Half life in mouse liver microsomes at 1.5 uM by LC-MS analysis; assay type: ADME, microsome
[42] = tested on: Trypanosoma brucei brucei; experiment: Antiparasitic activity against Trypanosoma brucei brucei BF427 assessed as growth inhibition at 16 times EC50 pretreated for 48 hrs followed by compound washout measured after 10 days by light microscopic method; assay type: functional
[43] = tested on: Trypanosoma brucei rhodesiense; experiment: Antiparasitic activity against Trypanosoma brucei rhodesiense STIB900 assessed as growth inhibition after 48 hrs by Alamar blue assay; assay type: functional; settings: STIB900, 48 h

Structure (SMILES): CC1(C)OB(O)c2cc(NC(=O)c3ccc(F)cc3C(F)(F)F)ccc21
- Activity [1]: Active
- Activity [2]: Active
- Activity [3]: Active
- Activity [4]: Active
- Activity [5]: Active
- Activity [6]: Active
- Activity [7]: Active
- Activity [8]: Active
- Activity [9]: Active
- Activity [10]: Active
- Activity [11]: Active
- Activity [12]: Active

Structure (SMILES): N=C(N)c1ccc(/N=N/Nc2ccc(C(=N)N)cc2)cc1
- Activity [13]: Active
- Activity [14]: inactive
- Activity [15]: Active
- Activity [16]: Active
- Activity [17]: Active
- Activity [18]: Active
- Activity [19]: Active
- Activity [20]: inactive
- Activity [21]: Active
- Activity [22]: Active
- Activity [23]: Active
- Activity [24]: Active

Structure (SMILES): Cl.NCCN(C(=O)c1ccccc1C(F)(F)F)c1ccc(OCc2ccc(Cl)cc2)cc1
- growth inhibition (GI) [25]: Active
- CC50 [26]: 5.72 µM
- growth inhibition (GI) [27]: Active
- growth inhibition (GI) [28]: Active
- BPR [29]: 0.88
- growth inhibition (GI) [30]: Active
- Cmax [31]: 1670 nM
- EC50 [32]: 0.007 µM
- Activity [33]: 33%
- t1/2 [34]: > 1 h
- AUC(0-t) at 8 h [35]: 10.3 µM·h
- CC50 [36]: 3.08 µM

Structure (SMILES): Cl.NCCN(C(=O)c1ccc(Cl)cc1Cl)c1ccc(OCc2ccc(Cl)cc2)cc1
- growth inhibition (GI) [37]: Active
- growth inhibition (GI) [38]: Active
- CC50 [26]: 2 µM
- IC50 [39]: 0.179 µM
- BPR [29]: 0.42
- Cmax [31]: 530 nM
- EC50 [32]: 0.031 µM
- Activity [33]: 67 - 80%
- t1/2 [34]: > 1 h
- growth inhibition (GI) [40]: Active
- t1/2 [41]: 0.583 h
- AUC(0-t) at 8 h [35]: 3.42 µM·h
- CC50 [36]: 2 µM
- growth inhibition (GI) [42]: Active
- EC50 [43]: 0.005 µM
